Results: ChEMBL document CHEMBL1201862, “PubChem BioAssay data set” (2004)
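48-hour exposure; five concentrations; linearly interpolated endpoints. The concentration for 50% growth inhibition is given as GI50.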 Activity calls are given as the source filed them. No stated cut-off is given here; in the data, active = GI50 up to about 1.1 µM and inactive = higher.

Key:
Assay in all cases: NCI anticancer screen, dose series, 48 h
[1] = test system: SF-268
[2] = test system: 786-0
[3] = test system: ACHN
[4] = test system: SK-MEL-5
[5] = test system: SNB-19
[6] = test system: Malme-3M
[7] = test system: NCI-H226
[8] = test system: NCI-H522
[9] = test system: NCI-H460
[10] = test system: UACC-62
[11] = test system: LOX IMVI
[12] = test system: K562
[13] = test system: DLD-1
[14] = test system: HOP-62
[15] = test system: RXF 393
[16] = test system: SF-539
[17] = test system: CAKI-1
[18] = test system: Hs-578T
[19] = test system: MDA-N
[20] = test system: BT-549

Measured: GI50

CCN1C(=O)/C(=C\c2coc3ccccc3c2=O)SC1=S
inactive: [1] 66.8 µM | [2] 73.8 µM | [3] > 100 µM | [4] > 100 µM | [5] > 100 µM | [6] > 100 µM | [7] > 100 µM | [8] 91.4 µM | [9] > 100 µM | [10] 68.7 µM | [11] 42.1 µM | [12] > 100 µM | [13] > 100 µM | [14] 61.9 µM | [15] 36.5 µM | [16] 32.8 µM | [17] > 100 µM

CSC1CC2C(CC1(C)SC)C2(C)C (stereo not drawn)
inactive: [1] > 100 µM | [2] 64.9 µM | [3] > 100 µM | [4] 24.4 µM | [5] 46.9 µM | [6] 41.8 µM | [7] 24.7 µM | [8] > 100 µM | [9] 23.9 µM | [10] 60.7 µM | [11] 30.7 µM | [12] 24.3 µM | [13] 58.1 µM | [14] > 100 µM | [15] 56.5 µM | [16] > 100 µM | [17] > 100 µM

CS(=O)(=O)c1cc(=O)c2ccccc2s1
inactive: [1] 14.1 µM | [2] 5.55 µM | [3] 2.74 µM | [4] 14.3 µM | [5] 17.5 µM | [6] 1.8 µM | [7] 13.7 µM | [18] 26.6 µM | [19] 4.46 µM | [8] 1.24 µM | [9] 18.1 µM | [10] 12.2 µM | [11] 6.68 µM | [12] 1.33 µM | [13] 1.91 µM | [14] 20.5 µM | [15] 3.91 µM | [16] 13.2 µM | [20] 19.3 µM | [17] 2.07 µM

O=C1C2C3C=CC(C2C(=O)N1COP(=O)(O)O)C1C2C(=O)N(COP(=O)(O)O)C(=O)C2C31 (stereo not drawn)
inactive: [1] > 67.5 µM | [2] > 71.6 µM | [3] > 91.2 µM | [4] > 100 µM | [5] > 100 µM | [6] > 100 µM | [7] > 100 µM | [8] > 100 µM | [9] > 41.9 µM | [10] > 100 µM | [11] > 43.4 µM | [12] > 67 µM | [13] > 49.2 µM | [14] > 100 µM | [15] > 100 µM | [16] > 100 µM | [17] > 100 µM

O=C(O)c1ccccc1NS(=O)(=O)c1ccc(Cl)cc1
inactive: [1] > 100 µM | [2] > 100 µM | [3] > 100 µM | [4] > 100 µM | [5] > 100 µM | [6] > 100 µM | [7] > 100 µM | [8] 54 µM | [9] > 100 µM | [10] > 100 µM | [11] > 100 µM | [12] > 100 µM | [13] > 100 µM | [14] > 100 µM | [15] > 100 µM | [16] > 100 µM | [17] > 100 µM
